According to US20240083903A1, “ARYL ETHER COMPOUNDS AS TEAD MODULATORS” (Merck Sharp& Dohme LLC, priority 2021, published 2024):

System: TEAD Reporter-MCF7 cell line
Assay: YAP/TEAD cellular activity assay: inhibition of TEAD-Luc activity in TEAD Reporter-MCF7 cell line
Type: cell-based, human
Details: TEAD Reporter-MCF7 cells, 24 hours incubation with compound, luciferase readout
Method: YAP/TEAD Cellular Activity Assay
Quantitation of Compound Potency on the Inhibition of TEAD-Luc Activity in TEAD Reporter-MCF7 Cell Line.
The TEAD Reporter-MCF7 cell line containing the firefly luciferase gene under the control of TEAD responsive elements stably integrated into the human breast cancer cell line was purchased from BPS Bioscience (Cat #60618). The cells were cultured with complete culture medium ([…], 1 mM sodium pyruvate, 10% fetal bovine serum, 10 ng/mL insulin and 400 ug/mL G418 sulfate) prior to the assay. For the assay, the cells were harvested, resuspended in the complete culture medium without G418, and seeded into white solid bottom 384-well cell culture microplates in 25 uL with 10,000 cells per well. The plates were incubated at 37° C. in a CO2 incubator for 20-24 hours and the compounds were then transferred from Echo LDV plates directly into the 384-well white tissue culture plates with an Echo. The plates were incubated at 37° C. in a CO2 incubator for 24 hours and equal volume of ONE-Glo™ EX Luciferase reagent (Promega, Cat #E8150) was added. After mixing on a shaker at room temperature for 10 minutes, the luciferase activity was measured with an Envision. The percentage inhibition and EC50 values of compounds were calculated with Spotfire.
Required Materials • 1. TEAD reporter-MCF-7 Cells (BPS Bioscience, #60618) • 2. Complete Cell Culture Medium (without selection antibiotics) • EMEM 89% (ATCC, #30-2003) • FBS 10% (Hyclone, #SH30088.03) • 1% Non essential amino acids (Gibco, • 1 mM sodium pyruvate (Gibco, • Pen/Strep, 1% (Gibco, #15140-122) • 10 ng/mL insulin (Sigma, #10516) • 3. Complete Cell Culture Medium (with selection antibiotics) • EMEM 89% (ATCC, #30-2003) • F1% Non essential amino acids (Gibco, • 1 mM sodium pyruvate (Gibco, • BS 10% (Hyclone, #SH30088.03) • 10 ng/mL insulin (Sigma, #10516) • 400 ug/mL G418 sulfate (Agilent, #200049-21) • 4. Miscellaneous tissue culture equipment and reagents. • 5. White solid 384-well tissue culture plate (Greiner, Cat #781080) • 6. One Glo EX luciferase assay system (Promega, #E8150)
The following table tabulates the biological data disclosed for the current invention. The biological data was collected using the methodology described above. For each compound, TEAD-Luc EC50 values are listed in nanomolar (nM) concentration units.

SMILES | EC50 [nM] | EC50 (Homo sapiens, MCF7, 24 h) [nM]
CNS(=O)(=O)c1ccc(Oc2ccc(C(F)(F)F)cc2)c(-c2cn3c(n2)OC(C)C3)c1 (single isomer, unassigned) [1-38, (R)- or (S)-N-methyl-3-(2-methyl-2,3-dihydroimidazo[2,1-b] [1,3]oxazol-6-yl)-4-[4-(trifluoromethyl)phenoxy]benzene-1-sulfonamide] | 28.4 | 
CNS(=O)(=O)c1ccc(Oc2ccc(C(F)(F)F)cc2)c(-c2cn3c(n2)OC(C)C3)c1 (single isomer, unassigned) [1-39, (S)- or (R)-N-methyl-3-(2-methyl-2,3-dihydroimidazo[2,1-b] [1,3]oxazol-6-yl)-4-[4-(trifluoromethyl)phenoxy]benzene-1-sulfonamide] | 7.4 | 
CNS(=O)(=O)c1ccc(Oc2ccc(C(F)(F)F)cc2)c(-c2cn3c(n2)CC(C)C3)c1 (single isomer, unassigned) [1-41, (R)- or (S)-N-methyl-3-(6-methyl-6,7-dihydro-5H-pyrrolo [1,2-a]imidazol-2-yl)-4-[4-(trifluoromethyl)phenoxy]benzene-1-sulfonamide] | 26.1 | 
CNS(=O)(=O)c1ccc(Oc2ccc(C(F)(F)F)cc2)c(-c2cn3c(n2)CC(C)C3)c1 (single isomer, unassigned) [1-42, (S)- or (R)-N-methyl-3-(6-methyl-6,7-dihydro-5H-pyrrolo[1,2-a]imidazol-2-yl)-4-[4-(trifluoromethyl)phenoxy]benzene-1-sulfonamide] | 6.4 | 
CNS(=O)(=O)c1ccc(Oc2ccc(C(F)(F)F)cc2)c(-c2cn3c(n2)C(C)CC3)c1 (single isomer, unassigned) [1-43, (R)- or (S)-N-methyl-3-(7-methyl-6,7-dihydro-5H-pyrrolo[1,2-a]imidazol-2-yl)-4-[4-(trifluoromethyl)phenoxy]benzene-1-sulfonamide] | 8.1 | 
CNS(=O)(=O)c1ccc(Oc2ccc(C(F)(F)F)cc2)c(-c2cn3c(n2)C(C)CC3)c1 (single isomer, unassigned) [1-44, (S)- or (R)-N-methyl-3-(7-methyl-6,7-dihydro-5H-pyrrolo[1,2-a]imidazol-2-yl)-4-[4-(trifluoromethyl)phenoxy]benzene-1-sulfonamide] | 33.6 | 
CNS(=O)(=O)c1ccc(Oc2ccc(C(F)(F)F)cc2)c(-c2cn3c(n2)CCC3)c1 [1-1, 3-(6,7-Dihydro-5H-pyrrolo[1,2-a]imidazol-2-yl)-N-methyl-4-(4-(trifluoromethyl)phenoxy)benzenesulfonamide] |  | 6
CNS(=O)(=O)c1ccc(Oc2ccc(C(F)(F)F)cc2)c(-c2cc3n(n2)CCC3)c1 [1-2, 3-(5,6-Dihydro-4H-pyrrolo[1,2-b]pyrazol-2-yl)-N-methyl-4-(4-(trifluoromethyl)phenoxy)benzenesulfonamide] |  | 5.1
CNS(=O)(=O)c1ccc(Oc2ccc(C(F)(F)F)cc2)c(-c2cn3c(n2)COCC3)c1 [1-3, 3-(5,6-Dihydro-8H-imidazo[2,1-c] [1,4]oxazin-2-yl)-N-methyl-4-(4-(trifluoromethyl)phenoxy)benzenesulfonamide] |  | 36.2
CNS(=O)(=O)c1ccc(Oc2ccc(C(F)(F)F)cc2)c(-c2cnc3c(C)cccn23)c1 [1-4, N-Methyl-3-(8-methylimidazo[1,2-a]pyridin-3-yl)-4-(4-(trifluoromethyl)phenoxy)benzenesulfonamide] |  | 6030
CNS(=O)(=O)c1ccc(Oc2ccc(C(F)(F)F)cc2)c(-c2cnn3c2CCC3)c1 [1-5, 3-(5,6-dihydro-4H-pyrrolo[1,2-b]pyrazol-3-yl)-N-methyl-4-[4-(trifluoromethyl)phenoxy]benzene-1-sulfonamide] |  | 106
CNS(=O)(=O)c1ccc(Oc2ccc(C(F)(F)F)cc2)c(-c2cnc3n2CCC3)c1 [1-6, 3-(6,7-dihydro-5H-pyrrolo[1,2-a]imidazol-3-yl)-N-methyl-4-[4-(trifluoromethyl)phenoxy]benzene-1-sulfonamide] |  | 3490
CNS(=O)(=O)c1ccc(Oc2ccc(C(F)(F)F)cc2)c(-c2ncc3cnccn23)c1 [1-7, 3-(imidazo[1,5-a]pyrazin-3-yl)-N-methyl-4-[4-(trifluoromethyl)phenoxy]benzene-1-sulfonamide] |  | 5350
CNS(=O)(=O)c1ccc(Oc2ccc(C(F)(F)F)cc2)c(-c2[nH]nc3ccccc23)c1 [1-8, 3-(2H-indazol-3-yl)-N-methyl-4-[4-(trifluoromethyl)phenoxy]benzene-1-sulfonamide] |  | 2870
CNS(=O)(=O)c1ccc(Oc2ccc(C(F)(F)F)cc2)c(-c2cn3c(n2)CCCC3)c1 [1-9, N-methyl-3-(5,6,7,8-tetrahydroimidazo [1,2-a]pyridin-2-yl)-4-[4-(trifluoromethyl)phenoxy]benzene-1-sulfonamide] |  | 12.8
CNS(=O)(=O)c1ccc(Oc2ccc(C(F)(F)F)cc2)c(-c2nc3ncccn3n2)c1 [1-10, N-methyl-3-([1,2,4]triazolo[1,5-a]pyrimidin-2-yl)-4-[4-(trifluoromethyl)phenoxy]benzene-1-sulfonamide] |  | 454
CNS(=O)(=O)c1ccc(Oc2ccc(C(F)(F)F)cc2)c(-c2nc3cccnc3s2)c1 [1-11, N-methyl-3-([1,3]thiazolo[5,4-b]pyridin-2-yl)-4-[4-(trifluoromethyl)phenoxy]benzene-1-sulfonamide] |  | 238
CNS(=O)(=O)c1ccc(Oc2ccc(C(F)(F)F)cc2)c(-c2nc3cc(OC)ccc3[nH]2)c1 [1-12, 3-(5-methoxy-1H-benzimidazol-2-yl)-N-methy1-4-[4-(trifluoromethyl)phenoxy]benzene-1-sulfonamide] |  | 5440
CNS(=O)(=O)c1ccc(Oc2ccc(C(F)(F)F)cc2)c(-c2nsc3ccccc23)c1 [1-13, 3-(1,2-benzothiazol-3-yl)-N-methyl-4-[4-(trifluoromethyl)phenoxy]benzene-1-sulfonamide] |  | 414
CNS(=O)(=O)c1ccc(Oc2ccc(C(F)(F)F)cc2)c(-c2nc3c(s2)CNC3)c1 [1-14, 3-(5,6-dihydro-4H-pyrrolo[3,4-d] [1,3]thiazol-2-yl)-N-methyl-4-[4-(trifluoromethyl)phenoxy]benzene-1-sulfonamide] |  | 2640
CNS(=O)(=O)c1ccc(Oc2ccc(C(F)(F)F)cc2)c(-c2nc3cnccn3n2)c1 [1-15, N-methyl-3-([1,2,4]triazolo[1,5-a]pyrazin-2-yl)-4-[4-(trifluoromethyl)phenoxy]benzene-1-sulfonamide] |  | 540
CNS(=O)(=O)c1ccc(Oc2ccc(C(F)(F)F)cc2)c(-c2cc3c(s2)CCNC3)c1 [1-16, N-methyl-3-(4,5,6,7-tetrahydrothieno[3,2-c]pyridin-2-yl)-4-[4-(trifluoromethyl)phenoxy]benzene-1-sulfonamide] |  | 4020
CNS(=O)(=O)c1ccc(Oc2ccc(C(F)(F)F)cc2)c(-c2nc3n(c2C#N)CCNC3)c1 [1-17, 3-(3-cyano-5,6,7,8-tetrahydroimidazo[1,2-a]pyrazin-2-yl)-N-methyl-4-[4-(trifluoromethyl)phenoxy]benzene-1-sulfonamide] |  | 1070
CNS(=O)(=O)c1ccc(Oc2ccc(C(F)(F)F)cc2)c(-c2cn3ccsc3n2)c1 [1-18, 3-(imidazo[2,1-b][1,3]thiazol-6-yl)-N-methyl-4-[4-(trifluoromethyl)phenoxy]benzene-1-sulfonamide] |  | 34.1
CNS(=O)(=O)c1ccc(Oc2ccc(C(F)(F)F)cc2)c(-c2cc3ncccn3n2)c1 [1-19, N-methyl-3-(pyrazolo[1,5-a]pyrimidin-2-yl)-4-[4-(trifluoromethyl)phenoxy]benzene-1-sulfonamide] |  | 60.6
